Test results: US20170355760A1, “METHODS FOR MODULATING THE GLYCOSYLATION PROFILE OF RECOMBINANT PROTEINS USING SUGARS” (AbbVie Inc., priority 2014, published 2017)

Tests used:
Assay type in all cases: cell-based, Chinese Hamster
CHO cell line 1 [1] = experiment: Viable cell density and cell viability of shaker flask cultures (trypan blue exclusion, Cedex); settings: for peak VCD compared to control: 50 mM supplementation; for cell viability profile: 1-50 mM supplementation; for cell growth compared to the unsupplemented control: sugar 1, 10, 25, 50 mM in basal media, shaker flask
Description: (§1) A recombinant Chinese Hamster Ovary (CHO) cell line (Cell Line 1) expressing a humanized monoclonal antibody (Antibody 1) was evaluated in shaker flask cultures. The cell line was of CHO DUX-B11 origin based on a dhfr (dihydrofolate reductase) expression system, and cultured in a chemically defined basal and chemically-defined feed media. Each of the respective cultures were supplemented with selected monosaccharides and oligosaccharides to evaluate for their potential impact on the resulting N-glycan oligosaccharide profile. All sugars were purchased from Sigma-Aldrich (St. Louis, Mo.), and dissolved at the concentrations referenced below in the cell culture media. Unless specified otherwise, all sugars evaluated were in their D-form. In preparation of the cultures, the cell lines were expanded through seed train inoculums to generate enough cells for inoculation.
Viable cell density (VCD) and cell viability values were measured through trypan blue exclusion via Cedex automated cell counters (Roche Applied Science, Indianapolis, Ind.). Initial viable cell density and viability in the cultures were targeted towards the same value. Immediately after inoculation, only a handful of each of the shake flasks were sampled for VCD and viability, and the results were averaged. All Day 0 values amongst these flasks were thus reported to be at this average. The cultures were harvested on Process Days 9-10, or when cell viability dropped below 50%, whichever occurred first.

CHO cell line 1 [2] = experiment: Harvest antibody titer (Poros A Protein A affinity HPLC); settings: for harvest titer compared to unsupplemented control: 1-50 mM supplementation
Description: as §1
Antibody titers were measured from crude cell culture harvests on a Poros A™ (Life Technologies, Carlsbad, Calif.) affinity column using an Agilent (Santa Clara, Calif.) 1200 Series HPLC, or equivalent, operating with a low pH, step elution gradient with detection at 280 nm. Absolute concentrations were assigned with respect to reference standard calibration curves.

[3] = tested on: Cell Line 1 expressing a humanized monoclonal antibody (Antibody 1); experiment: N-glycan oligosaccharide profiling of Protein A purified antibody (reduced heavy chain, RP-HPLC/Q-TOF MS); settings: for redirecting the N-glycan glycoform profile: 250 mL shaker flask cultures, defined supplementation range
Description: as §1
Purified antibodies subjected to additional analytical characterization were purified using MabSelect™ Protein A (GE Healthcare, Piscataway, N.J.) using a low pH, step elution gradient, followed by neutralization, and subsequently buffer exchanged when necessary using Amicon centrifugal filters (EMD Millipore, Billerica, Mass.) according to the manufacturer's recommended procedure.
The heavy chain of adalimumab was analyzed using an HPLC (Agilent 1260, Santa Clara, Calif.) with a reversed phase column (Vydac, C4, 1×150 mm, 5μ particle size) coupled to a Q-TOF mass spectrometer (Agilent, 6510). Protein A purified samples from cell culture harvests were first reduced using DTT at 37° C. for 30 minutes. The samples were then loaded using 95% mobile phase A (0.08% formic acid and 0.02% TFA in water) and 5% mobile phase B (0.08% formic acid and 0.02% TFA in acetonitrile), and then eluted using a gradient of increasing levels of mobile phase B. The flow rate was 50 μL/min and the column temperature was set to 60° C. The mass spectrometer was operated in positive ion mode with an ion spray voltage of 4500 volts and a source temperature of 350° C. Resolved peaks centered on the known masses of different N-glycans was subsequently used to identify the different types of N-glycans, and the relative peak heights were used to quantitate their respective levels.

[4] = 1-50 mM vs unsupplemented control
[5] = the higher concentrations evaluated
[6] = each of the concentrations evaluated (1-50 mM)
[7] = across all supplemented concentrations (1-50 mM)

OC[C@H]1O[C@@H](O[C@@H]2[C@@H](CO)OC(O)(CO)[C@H]2O)[C@H](O)[C@@H](O)[C@H]1O (mixture of isomers) [lactulose]
peak VCD compared to control (CHO cell line 1 [1]): drop in VCD | cell viability profile (CHO cell line 1 [1]): no adverse impact | cell growth compared to the unsupplemented control (CHO cell line 1 [1]): only the 50 mM level of this sugar had a slightly adverse impact to cell growth performance | harvest titer ratio (CHO cell line 1 [2]; 50 mM): 0.89 | harvest titer compared to unsupplemented control (CHO cell line 1 [2]): only nominally impacted | G0F N-glycan levels [3, 4]: approximately equal drop | N-glycan oligosaccharide profile change upon supplementation [3, 4]: lactulose dependent increase in Man5, G0F-GlcNAc, and G1F N-glycans | redirecting the N-glycan glycoform profile [3]: toward the high mannose type

OC[C@H]1O[C@@H](O[C@H]2[C@H](O)[C@@H](O)C(O)O[C@@H]2CO)[C@H](O)[C@@H](O)[C@H]1O (stereo partly drawn) [lactose]
peak VCD compared to control (CHO cell line 1 [1]): noticeably lower than the control | cell viability profile (CHO cell line 1 [1]): no adverse impact | cell growth compared to the unsupplemented control (CHO cell line 1 [1]): no adverse impact towards cell growth performance | relative harvest titer (CHO cell line 1 [2]; 1 mM (lowest across tested concentrations)): 0.87 | harvest titer compared to unsupplemented control (CHO cell line 1 [2]): small decrease in harvest titers | G0F N-glycan levels [3, 4]: almost equal drop | redirecting the N-glycan glycoform profile [3]: toward the complex, galactosylated type | increase in G1F species ([3]; at most, across 1-50 mM): ≤ 4% | increase in G2F species ([3]; at most, across 1-50 mM): ≤ 2%

OC[C@H]1O[C@@](CO)(O[C@H]2O[C@H](CO)[C@@H](O)[C@H](O)[C@H]2O)[C@@H](O[C@H]2O[C@H](CO)[C@@H](O)[C@H](O)[C@H]2O)[C@@H]1O [melezitose]
peak VCD compared to control (CHO cell line 1 [1]): drop in peak VCD | cell viability profile (CHO cell line 1 [1]): no adverse impact | cell growth compared to the unsupplemented control (CHO cell line 1 [1]): only the 50 mM condition had an adverse impact on cell growth | harvest titer ratio (CHO cell line 1 [2]; 10 mM (lowest result observed)): 0.82 | harvest titer compared to unsupplemented control (CHO cell line 1 [2]): nominally reduce the harvest titer | increase in G1F ([3]; 1 mM): 1% | increase in G1F ([3]; 10 mM): 9% | increase in G1F ([3]; 25 mM): 20% | increase in G1F ([3]; 50 mM): 28% | G0 type glycans [3, 4]: almost equal drop in relative value | G2 N-glycan change [3, 4]: mirrored these results, albeit at a much lower overall percent change | N-glycan oligosaccharide profile change upon supplementation [3, 4]: largest % impact on the protein glycosylation profile | redirecting the N-glycan glycoform profile [3]: toward the complex, galactosylated type | Man5 levels ([3]; all tested concentrations): Reduced levels

OC[C@H]1O[C@H](OC[C@H]2OC(O)(CO)[C@@H](O)[C@@H]2O)[C@H](O)[C@@H](O)[C@@H]1O (stereo partly drawn) [palatinose]
cell viability profile (CHO cell line 1 [1]): reasonably consistent with each other | cell growth compared to the unsupplemented control (CHO cell line 1 [1]): only the lowest concentration (1 mM) supported a cell growth profile that closely approximated that of the unsupplemented control | peak VCD compared to the unsupplemented control (CHO cell line 1 [1]; [5]): lower peak viable cell densities | harvest titer compared to unsupplemented control (CHO cell line 1 [2]): slightly less antibody product | G0F N-glycan levels [3, 4]: significant decrease | N-glycan oligosaccharide profile change upon supplementation [3, 4]: increase Man5, G0F-GlcNAc, G1F, and G2F N-glycans in a palatinose concentration-dependent manner | redirecting the N-glycan glycoform profile [3]: toward the high mannose type

O=C(CO)[C@H](O)[C@H](O)[C@H](O)CO [psicose]
cell viability profile (CHO cell line 1 [1]): no significant changes | peak VCD compared to the unsupplemented control (CHO cell line 1 [1]; [6]): lower peak VCD | harvest titer compared to unsupplemented control (CHO cell line 1 [2]): slightly lower compared to the control | harvest titer ratio (CHO cell line 1 [2]; [7]): > 0.88 | G0F N-glycan levels [3, 4]: dropped in an almost equal fashion | N-glycan oligosaccharide profile change upon supplementation [3, 4]: increase Man5, G0F-GlcNAc, and G1F species in a psicose concentration-dependent manner | redirecting the N-glycan glycoform profile [3]: toward the high mannose type

OC[C@H]1O[C@H](OC[C@H]2O[C@H](O[C@]3(CO)O[C@H](CO)[C@@H](O)[C@@H]3O)[C@H](O)[C@@H](O)[C@@H]2O)[C@H](O)[C@@H](O)[C@H]1O [raffinose]
cell viability profile (CHO cell line 1 [1]): closely approximated each other | cell growth compared to the unsupplemented control (CHO cell line 1 [1]): comparable to the unsupplemented control up to a raffinose concentration of 10 mM | peak VCD compared to the unsupplemented control (CHO cell line 1 [1]; [5]): lower than that of the unsupplemented control | harvest titer compared to unsupplemented control (CHO cell line 1 [2]): closely approximated each other | redirecting the N-glycan glycoform profile [3]: toward the high mannose type | increase in Man5, G0F-GlcNAc, and G1F compared to the unsupplemented control ([3]; concentration-dependent, 1-50 mM): > 2%

OC[C@H]1O[C@H](O[C@H]2O[C@H](CO)[C@@H](O)[C@H](O)[C@H]2O)[C@H](O)[C@@H](O)[C@@H]1O [trehalose]
cell viability profile (CHO cell line 1 [1]): not affected | peak VCD compared to the unsupplemented control (CHO cell line 1 [1]; [6]): lower peak VCD | harvest titer compared to unsupplemented control (CHO cell line 1 [2]): slightly lower values | harvest titer ratio (CHO cell line 1 [2]; [7]): > 0.85 | G0F N-glycan levels [3, 4]: significant decrease | N-glycan oligosaccharide profile change upon supplementation [3, 4]: more Man5 and G0F-GlcNAc levels | redirecting the N-glycan glycoform profile [3]: toward the high mannose type

O=C(CO)[C@@H](O[C@H]1O[C@H](CO)[C@@H](O)[C@H](O)[C@H]1O)[C@H](O)[C@H](O)CO [turanose]
peak VCD compared to control (CHO cell line 1 [1]): small nominal drop | cell viability profile (CHO cell line 1 [1]): did not show a very significant adverse impact | cell growth compared to the unsupplemented control (CHO cell line 1 [1]): did not show a very significant adverse impact towards cell growth | drop in harvest titer (CHO cell line 1 [2]; 50 mM (largest drop)): 10% | harvest titer compared to unsupplemented control (CHO cell line 1 [2]): small drop in harvest titer | increase in G1F ([3]; 1 mM): 0.2% | increase in G2F ([3]; 10 mM): 3% | increase in G2F ([3]; 25 mM): 7% | increase in G1F ([3]; 50 mM): 14% | N-glycan oligosaccharide profile change upon supplementation [3, 4]: increase of G1F and G2F species, which came at the expense of the G0F and G0F-GlcNAc species | redirecting the N-glycan glycoform profile [3]: toward the complex, galactosylated type
